Structures are written as SMILES. Where “and” joins values, the source holds several entries; their conditions need not be identical. Equal values may be shown once.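 How tested: cells in 96-well plates exposed to compound for 48 hours at five concentrations. GI50: concentration for 50% inhibition of growth. TGI: concentration producing complete growth inhibition.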

The first experiment relates to SK-MEL-5 melanoma. As to the kind of experiment: NCI tumour cell line growth inhibition, 48 h.
`CCCCc1c(O)nc(Nc2nc3ccccc3[nH]2)[nH]c1=O` came in with a TGI of more than 100 µM.

Regarding `Cc1c(S(=O)(=O)c2ccccc2)c(N)n(Cc2ccccc2)c1C`, the TGI was more than 100 µM.

Compound `COC(=O)C1(Cc2ccccc2)Cc2cc3c(cc2C1=O)CCC3` (configuration not stated) gave a TGI of 33 µM.

For the compound `Cc1ccc(-c2cc(N)n(-c3nc4c([nH]3)c(=O)n(C)c(=O)n4C)n2)cc1`, the TGI was 17 µM.

For `COc1ccc(N2C(=O)C3c4[nH]c5ccc([N+](=O)[O-])cc5c4C4CCC(C(C)(C)C)CC4C3C2=O)cc1` (configuration not stated), the TGI is 33.8 µM.

As for `CCOC(=O)CCC(NC(=O)c1ccc(OCc2nc3cc(C(F)(F)F)ccc3nc2-c2ccccc2)cc1)C(=O)OCC` (configuration not stated), the TGI is 60.4 µM.

As to `O=C(O)c1ccc(NC(c2ccccc2)c2ccc3cccnc3c2O)cc1` (configuration not stated), the TGI was 29.8 µM.

Compound `CC12CC(c3ccccc3O1)C(C(=O)Nc1ccc(F)cc1)C(=O)N2` (configuration not stated) had a TGI of more than 100 µM.

The compound `O=c1c2c3ccccc3[nH]c2c2cccc3c2n1CCC3` had a TGI of 79.2 µM.

Regarding `COc1ccc(-c2c(C#N)c(N)n(C3OC(CO)C(O)C(O)C3O)c(=S)c2C#N)cc1` (configuration not stated), the TGI is more than 100 µM.

In the case of `CCOC(=O)c1sc2nc(SC)nc3c2c1N=CN3c1ccc(Br)cc1`, the TGI is more than 100 µM.

As for `O=c1[nH]c2nc3ccccc3c(=O)n2/c1=C/c1ccc(O)cc1`, the TGI is more than 100 µM.

`Nc1nc(Cl)cc(NCC2(CO)CC(CCc3ccccc3)C2)n1` (configuration not stated) registered a TGI of more than 38.1 µM.

Turning to `O=c1c2ccccc2[nH]c(=S)n1-c1ccc(N=Nc2cccc3c(O)cccc23)cc1`, the TGI was more than 100 µM.

Consider `COc1ccc(-c2c(C#N)c(S)n(C3OC(COC(C)=O)C(OC(C)=O)C(OC(C)=O)C3OC(C)=O)c(=O)c2C#N)cc1` (configuration not stated), for which the GI50 is 60.7 µM and 29.3 µM; the TGI was more than 100 µM.

In turn, `C[C@]12OC[C@H](c3ccccc3)N1C(=O)C1[C@H]2CC12SCCS2` (some centres not stated) had a TGI of more than 100 µM.

With `c1sc(NC2=NCCO2)c2c1CCCC2`, the TGI was more than 100 µM.

In the next experiment the test system is DU-145 prostate. As to the kind of experiment: NCI tumour cell line growth inhibition, 48 h.
In the case of `CCCCc1c(O)nc(Nc2nc3ccccc3[nH]2)[nH]c1=O`, the TGI was more than 100 µM.

`Cc1c(S(=O)(=O)c2ccccc2)c(N)n(Cc2ccccc2)c1C` showed a TGI of more than 100 µM.

On to `COC(=O)C1(Cc2ccccc2)Cc2cc3c(cc2C1=O)CCC3` (configuration not stated), for which the TGI was more than 100 µM.

On to `Cc1ccc(-c2cc(N)n(-c3nc4c([nH]3)c(=O)n(C)c(=O)n4C)n2)cc1`, for which the TGI is 20.4 µM.

As for `COc1ccc(N2C(=O)C3c4[nH]c5ccc([N+](=O)[O-])cc5c4C4CCC(C(C)(C)C)CC4C3C2=O)cc1` (configuration not stated), the TGI was more than 100 µM.

`CCOC(=O)CCC(NC(=O)c1ccc(OCc2nc3cc(C(F)(F)F)ccc3nc2-c2ccccc2)cc1)C(=O)OCC` (configuration not stated) showed a TGI of more than 100 µM.

`O=C(O)c1ccc(NC(c2ccccc2)c2ccc3cccnc3c2O)cc1` (configuration not stated): the TGI is more than 100 µM.

Turning to `CC12CC(c3ccccc3O1)C(C(=O)Nc1ccc(F)cc1)C(=O)N2` (configuration not stated), the TGI is more than 100 µM.

`O=c1c2c3ccccc3[nH]c2c2cccc3c2n1CCC3`: the TGI was more than 100 µM.

In turn, `COc1ccc(-c2c(C#N)c(N)n(C3OC(CO)C(O)C(O)C3O)c(=S)c2C#N)cc1` (configuration not stated) returned a TGI of more than 100 µM.

Compound `CCOC(=O)c1sc2nc(SC)nc3c2c1N=CN3c1ccc(Br)cc1` had a TGI of more than 100 µM.

`O=c1[nH]c2nc3ccccc3c(=O)n2/c1=C/c1ccc(O)cc1` displayed a TGI of more than 100 µM.

Consider `Nc1nc(Cl)cc(NCC2(CO)CC(CCc3ccccc3)C2)n1` (configuration not stated), for which the TGI was more than 100 µM.

For `O=c1c2ccccc2[nH]c(=S)n1-c1ccc(N=Nc2cccc3c(O)cccc23)cc1`, the TGI is more than 100 µM.

`COc1ccc(-c2c(C#N)c(S)n(C3OC(COC(C)=O)C(OC(C)=O)C(OC(C)=O)C3OC(C)=O)c(=O)c2C#N)cc1` (configuration not stated) yielded a TGI of more than 100 µM.

In turn, `C[C@]12OC[C@H](c3ccccc3)N1C(=O)C1[C@H]2CC12SCCS2` (some centres not stated) displayed a TGI of more than 100 µM.

As for `c1sc(NC2=NCCO2)c2c1CCCC2`, the TGI is more than 100 µM.

In another experiment the test system is ACHN renal. As to the kind of experiment: NCI tumour cell line growth inhibition, 48 h.
The compound `CCCCc1c(O)nc(Nc2nc3ccccc3[nH]2)[nH]c1=O` yielded a TGI of more than 100 µM.

`Cc1c(S(=O)(=O)c2ccccc2)c(N)n(Cc2ccccc2)c1C` displayed a TGI of more than 100 µM.

Regarding `COC(=O)C1(Cc2ccccc2)Cc2cc3c(cc2C1=O)CCC3` (configuration not stated), the TGI is more than 100 µM.

Regarding `Cc1ccc(-c2cc(N)n(-c3nc4c([nH]3)c(=O)n(C)c(=O)n4C)n2)cc1`, the TGI was 10.7 µM.

As for `COc1ccc(N2C(=O)C3c4[nH]c5ccc([N+](=O)[O-])cc5c4C4CCC(C(C)(C)C)CC4C3C2=O)cc1` (configuration not stated), the TGI is 63.6 µM.

In the case of `CCOC(=O)CCC(NC(=O)c1ccc(OCc2nc3cc(C(F)(F)F)ccc3nc2-c2ccccc2)cc1)C(=O)OCC` (configuration not stated), the TGI was more than 100 µM.

Consider `O=C(O)c1ccc(NC(c2ccccc2)c2ccc3cccnc3c2O)cc1` (configuration not stated), for which the TGI was more than 100 µM.

For the compound `CC12CC(c3ccccc3O1)C(C(=O)Nc1ccc(F)cc1)C(=O)N2` (configuration not stated), the TGI is more than 100 µM.

On to `O=c1c2c3ccccc3[nH]c2c2cccc3c2n1CCC3`, for which the TGI was more than 100 µM.

In the case of `COc1ccc(-c2c(C#N)c(N)n(C3OC(CO)C(O)C(O)C3O)c(=S)c2C#N)cc1` (configuration not stated), the TGI is more than 100 µM.

In turn, `CCOC(=O)c1sc2nc(SC)nc3c2c1N=CN3c1ccc(Br)cc1` gave a TGI of more than 100 µM.

Regarding `O=c1[nH]c2nc3ccccc3c(=O)n2/c1=C/c1ccc(O)cc1`, the TGI was more than 100 µM.

On to `Nc1nc(Cl)cc(NCC2(CO)CC(CCc3ccccc3)C2)n1` (configuration not stated), for which the TGI was more than 100 µM.

For the compound `O=c1c2ccccc2[nH]c(=S)n1-c1ccc(N=Nc2cccc3c(O)cccc23)cc1`, the TGI is more than 100 µM.

Take `COc1ccc(-c2c(C#N)c(S)n(C3OC(COC(C)=O)C(OC(C)=O)C(OC(C)=O)C3OC(C)=O)c(=O)c2C#N)cc1` (configuration not stated): the TGI is more than 100 µM.

In the case of `C[C@]12OC[C@H](c3ccccc3)N1C(=O)C1[C@H]2CC12SCCS2` (some centres not stated), the TGI is more than 100 µM.

`c1sc(NC2=NCCO2)c2c1CCCC2`: the TGI was more than 100 µM.

(Values after PubChem BioAssay (NCI).)
